Laboratory results reported in patent US6797706B1, “Heterocyclecarboxamide derivative” (Yamanouchi Pharmaceutical Co., Ltd., priority 1999, dated 2004).

Columns and labels:
[1] = tested on: PCA reaction; assay: Mouse Passive Cutaneous Anaphylaxis (PCA) Test; type: in vivo; settings: Male ICR (CD-1) mice; subcutaneously 30 minutes or orally 2 hours before antigen challenge
Experimental: 3. Mouse Passive Cutaneous Anaphylaxis (PCA) Test […] After 24 hours of the sensitization, 200 μl of 0.5% Evans blue solution containing 50 μg of DNP-conjugated bovine serum albumin was intravenously administered, and, after 30 minutes, each mouse was sacrificed through exsanguination to isolate both ears. […] The dye in the tissues was extracted with formaride and colorimetrically determined at 620 nm. A value obtained by subtracting the dye content of the left ear from the dye content of the right ear was used as the amount of dye leaked into the tissues by the PCA reaction. The PCA inhibition ratio by the test compound was calculated based on the following equation. In the formula, C: amount of the dye leaked into the tissue at the time of the administration of the vehicle alone, and x: amount of the dye leaked into the tissue at the time of the administration of the test compound. Inhibition ratio (%)={C-X}×100/C

[2] = tested on: release of serotonin; assay: Serotonin Release Test; type: cell-based; settings: read-out: inhibitory activity as IC50 value against the release of serotonin
Experimental: 2. Serotonin Release Test
This was carried out in accordance with the method reported by Collado-Escobar et al. (Collado-Escobar, D et al. J. Immunol., 144: 3449-3457 (1990)).

[3] = target: T1, Syk (Homo sapiens, UniProt P43405); assay: Syk Tyrosine Kinase Inhibition Test (SPA system); type: biochemical
T1 construct: FLAG tag (8 amino acid residues) (C); made in house; host or cells: Sf-9 insect cells (baculovirus, pFASTBAC HT)
Excerpt: 1. Syk Tyrosine Kinase Inhibition Test
1) Preparation of Syk Protein
Human Syk gene, in the form where a gene of FLAG tag consisting of 8 amino acid residues was linked to the 3′-end, was cloned using RT-PCR method from total RNA prepared from Jurkat cells. The amplified cDNA was incorporated into a vector, pFASTBAC HT, contained in Baculovirus Expression System (GIBCO BRL Inc.). The pFASTBAC HT is designed in such a manner that a His tag consisting of 6 histidine residues can be fused to the 5′-end of Syk. This plasmid DNA was introduced into competent cells, DH10BAC, contained in the Baculovirus Expression System to prepare DNA of recombinant virus. Thereafter, the recombinant virus (culture supernatant) was obtained by transfection of the DNA of recombinant virus into Sf-9 cells (ATCC). […]
SPA (Scintillation Proximity Assay) is a system developed by Amersham making use of a phenomenon in which scintillation occurs when a molecule having a radioactivity is in the proximity of (linked to) the surface of plastic beads containing a scintillant included therein. […]
The plate was sealed, stirred, allowed to stand at room temperature for 15 minutes and then centrifuged at 1,500 rpm for 3 minutes to precipitate the SPA beads. Radioactivity of each well was measured using TOP COUNT (PACKARD), and the tyrosine phosphorylation activity by Syk was calculated.

Row | SMILES | suppression of PCA reaction [1] | IC50 [2] [nM] | inhibitory activity against Syk at 1 μM [3]
1 | Cc1cccc(Nc2nc(N[C@@H]3CCCC[C@@H]3N)ccc2C(N)=O)c1.Cl (relative stereo) [Example 1] | excellently suppressed PCA reaction | – | –
2 | Cc1cccc(Nc2nc(N[C@@H]3CCCC[C@@H]3N)cnc2C(N)=O)c1 (relative stereo) [Example 2, 5-(cis-2-aminohexylamino)-3-(3-methylanilino)pyrazine-2-carboxamide] | excellently suppressed PCA reaction | – | –
3 | COc1cccc(Nc2nc(N[C@@H]3CCCC[C@@H]3N)cnc2C(N)=O)c1 (relative stereo) [Example 8, 5-(cis-2-aminocyclohexylamino)-3-(3-methoxyanilino)pyrazine-2-carboxamide] | excellently suppressed PCA reaction | ≤ 100 | –
4 | COc1cc(Nc2nc(N[C@@H]3CCCC[C@@H]3N)cnc2C(N)=O)cc(OC)c1 (relative stereo) [Example 10, 5-(cis-2-aminocyclohexylamino)-3-(3,5-dimethoxyanilino)pyrazine-2-carboxamide] | excellently suppressed PCA reaction | ≤ 100 | –
5 | CSc1ccc(Nc2nc(N[C@@H]3CCCC[C@@H]3N)cnc2C(N)=O)cc1 (relative stereo) [Example 11, 5-(cis-2-aminocyclohexylamino)-3-(4-methylsulfanylanilino)pyrazine-2-carboxamide] | excellently suppressed PCA reaction | ≤ 100 | –
6 | CN(C)C(=O)c1cnc(NCCN)nc1Nc1cccc(C(F)(F)F)c1 [2-(2-aminoethylamino)-N,N-dimethyl-4-(3-trifluoromethylanilino)pyrimidine-5-carboxamide] | – | – | did not exhibit any inhibitory activity
7 | CNC(=O)c1cnc(NCCN)nc1Nc1cccc(C(F)(F)F)c1 [2-(2-aminoethylamino)-N-methyl-4-(3-trifluoromethylanilino)pyrimidine-5-carboxamide] | – | – | did not exhibit any inhibitory activity
